Experimental data published in publication PMC5315738 (Clinical Pharmacokinetics, 2016).
Read-outs that look alike come from different tables or passages of the source. One block for each molecule: values may come before it.

Tests used:
[1] = all animal species (rabbits, rats, minipigs and mice), 0.05–0.5 μM; cited from earlier work
[2] = in vitro and in vivo toxicology studies; cited from earlier work
[3] = human; cited from earlier work
P-gp [4] = details: Caco-2 monolayers and human P-gp-expressing LLC-PK1 cells; cited from earlier work
[5] = tested on: OATP, OAT and OCT drug transporters; details: transfected HEK293 cell lines; cited from earlier work
[6] = PopPK, cited from earlier work
[7] = cited from earlier work
[8] = minipigs, cited from earlier work
HER2 = details: HER2, cell-free; cited from earlier work
[9] = assay type: in vivo; details: human, plasma, oral
[10] = a P-gp substrate; cited from earlier work
[11] = mouse; ref Boehringer Ingelheim unpublished data, 25, 28; cited from earlier work
[12] = cited from earlier work; remark: listed apart in the source
[13] = LUX-Lung 3, cited from earlier work
[14] = tested on: EGFR, HER2, ErbB4 phosphorylation and ErbB3 transphosphorylation; details: wide variety of cell lines; cited from earlier work
[15] = cited from earlier work; for V z/F, gMean / gMean terminal half-life: 10–100 mg doses
[16] = cited from earlier work; remark: listed apart in the source
[17] = cited from earlier work; remark: listed apart in the source
[18] = tested on: cytochrome P450 (CYP) isoenzymes; details: human hepatocytes and human liver microsomes; ref Boehringer Ingelheim unpublished data, 26; cited from earlier work
[19] = cited from earlier work; remark: listed apart in the source
BCRP = details: in vitro; cited from earlier work
ErbB4 = details: ErbB4, cell-free; cited from earlier work
[20] = cited from earlier work; remark: listed apart in the source
[21] = physiological pH range of 1–7.5; cited from earlier work
[22] = cited from earlier work; remark: listed apart in the source
P-gp [23] = details: read-out: inhibition constant (K i), digoxin transport; cited from earlier work
[24] = after a high-fat, high-caloric meal; cited from earlier work
[25] = rabbit; ref Boehringer Ingelheim unpublished data, 25, 28; cited from earlier work
[26] = cited from earlier work; remark: listed apart in the source
human serum albumin = details: 45 g/L albumin, in vitro; cited from earlier work
[27] = afatinib 20 mg, ritonavir 200 mg twice daily administered 1 h before afatinib, healthy subjects

- half-life [9]: ~37 h
SMILES: CN(C)CC=CC(=O)Nc1cc2c(Nc3ccc(F)c(Cl)c3)ncnc2cc1O[C@H]1CCOC1 [afatinib, N-[4-[(3-chloro-4-fluorophenyl)amino]-7-[[(3S)-tetrahydro-3-furanyl]oxy]-6-quinazolinyl]-4-(dimethylamino)-2-butenamide]
- Mean plasma protein binding [1]: > 92%
- genotoxicity [2]: no evidence of genotoxicity
- plasma protein bound [3]: approximately 95%
- substrate of the efflux transporter P-gp (P-gp [4]): P-gp substrate
- in vitro transport of afatinib by OATP, OAT, OCT [5]: no relevant in vitro transport
- increase in exposure for CLCR 43 mL/min ([6]; 2.5th percentile): 27.8%
- increase in exposure in female patients ([6]; accounting for all other covariate effects): 15%
- decrease in exposure for food intake ([6]; food intake less than 3 h before or less than 1 h after afatinib administration): 26%
- excretion of unchanged parent compound ([7]; rat, ref Boehringer Ingelheim unpublished data, 25, 28): > 50%
- volume of distribution ([7]; rats, intravenous dosing): 16.2 L/kg
- volume of distribution ([8]; intravenous dosing): 12.4 L/kg
- excretion of unchanged parent compound ([8]; ref Boehringer Ingelheim unpublished data, 25, 28): > 72%
- potency to inhibit kinase (HER2): nanomolar potency
- change in exposure on concomitant administration with sirolimus [10]: did not result in a clinically relevant change in exposure
- excretion of unchanged parent compound [11]: > 60%
- passive permeability through cell membranes [12]: high passive permeability
- interpatient variability in exposure (gCV) ([13]; day 1 of cycle three): 67%
- interpatient variability in exposure (gCV) ([13]; day 1 of cycle two): 85%
- potency of inhibition of phosphorylation in cells [14]: low nanomolar range
- time to achieve steady-state ([15]; once-daily dosing): ≤ 8 days
- V z/F, gMean ([15]; single doses): 1940 L
- gMean terminal half-life ([15]; single doses): 21 h
- Overall drug clearance (CL/F), gMean ([15]; single doses): 1050 mL/min
- V z/F, gMean ([15]; steady state): 2770 L
- gMean terminal half-life ([15]; steady state): 37 h
- Overall drug clearance (CL/F), gMean ([15]; steady state): 898 mL/min
- effect of renal impairment on plasma protein binding [16]: no effect
- increase in AUC in patients with severe renal impairment ([16]; severe renal impairment): approximately 50%
- urinary excretion of afatinib-related radioactivity ([17]; ADME study): < 5%
- unchanged drug excreted in urine ([17]; approximate): approximately 5%
- potential to inhibit or induce CYP isoenzymes [18]: low potential to inhibit or induce
- effect of hepatic impairment on plasma protein binding [19]: no effect
- substrate and inhibitor of the efflux transporter BCRP (BCRP): substrate and inhibitor
- potency to inhibit kinase (ErbB4): nanomolar potency
- increase in afatinib exposure (AUC∞) by ritonavir [20, 27]: 48%
- increase in afatinib exposure (C max) by ritonavir [20, 27]: 39%
- change in afatinib exposure by ritonavir ([20]; afatinib 40 mg, ritonavir taken concomitantly or 6 h after afatinib): did not relevantly change
- solubility [21]: highly soluble
- BCS class [22]: BCS class 1 or 3
- Ki (P-gp [23]): 3.4 µM
- reduction of AUC∞ by food [24]: ~39%
- reduction of C max by food [24]: approximately 50%
- excretion of unchanged parent compound [25]: > 87%
- decrease of mean time-matched QTcF between baseline and day 14 ([26]; afatinib 50 mg, over 1–24 h following administration, non-significant): 0.3 ms
- proarrhythmic potential ([26]; dose of 50 mg): does not have proarrhythmic potential

SMILES: CN(C)C/C=C/C(=O)Nc1cc2c(Nc3ccc(F)c(Cl)c3)ncnc2cc1O[C@H]1CCOC1 [afatinib dimaleate]
- binding to isolated human serum albumin (human serum albumin): 79.6%
- dose recovered in the urine ([17]; within 216 h after oral dose of 15 mg [14C]-radiolabelled afatinib dimaleate): 4.29%
- dose recovered in the faeces ([17]; within 312 h after oral dose of 15 mg [14C]-radiolabelled afatinib dimaleate): 85.4%
